According to patent publication US20130217694A1, “METHOD OF REDUCING THE SEVERITY OF INFLAMMATORY DERMATOLOGICAL CONDITIONS” (Allergan, Inc.., priority 2003, published 2013):

Tests used:
mice [1] = test: Phenylephrine-induced tactile hypersensitivity in mice; assay type: in vivo, mouse; conditions: for tactile (mechanical) hypersensitivity score: Phenylephrine (100 ng/kg I.P.), cumulative score 0 to 16, mean ± SEM
Method: To dissect the contribution of the sympathetic nervous system to sensory sensitization, mouse models having different mechanisms of sensory sensitization were developed. Tactile hypersensitivity was measured in mice following intrathecal or intraperitoneal injection of an inducing agent by scoring the response to light stroking of the mouse flank with a paintbrush.
(§1) Spinal drug injections were performed as follows. Mice (20-30 g) were injected intrathecally as described in Hylden and Wilcox, Eur. J. Pharmacol. 67:313-316 (1980). Briefly, a sterile 30-gauge ½ inch needle attached to a microsyringe was inserted between the L5 and L6 vertebrae. The mouse was held firmly by the pelvic girdle in one hand, while the syringe was held in the other hand at an angle of approximately 20° above the vertebral column. The needle was inserted into the tissue to one side of the L6 spinous process, into the groove between the spinous and transverse processes. The needle angle was decreased to about 10°, and the needle slowly advanced forward into the intervertebral space until a pop was felt and there was a visible serpentine tail movement. Compounds were slowly injected in the subarachnoid space in a volume of 5 μl. Each compound was tested at multiple doses. The minimal efficacious dose was used for all subsequent experiments.
Sensitivity to light touch was quantified by scoring the response of mice to light stroking of their flanks with a small paintbrush, which is not normally painful. […] The scores were summed to generate a cumulative score of 0 to 16 as described in Minami et al., Pain 57:217-223 (1994). Statistical calculations of significance for in vivo studies were done using a two-tailed Students t-test.

mice [2] = test: Sulprostone-induced tactile hypersensitivity in mice; assay type: in vivo, mouse; conditions: for tactile (mechanical) hypersensitivity score: Sulprostone (200 ng IT), cumulative score 0 to 16, mean ± SEM; for analgesic activity in sulprostone-induced tactile hypersensitivity: result in words
Method: The activity of a synthetic EP1/EP3 receptor-selective prostaglandin agonist, sulprostone, also was assayed.
as §1, with “Mice (20-30 g) were injected intrathecally as described in Hylden and Wilcox, Eur. J. Pharmacol. 67:313-316 (1980).” left out
(§2) Sensitivity to light touch was quantified by scoring the response of mice to light stroking of their flanks with a small paintbrush, which is not normally painful. […] Statistical calculations of significance for in vivo studies were done using a two-tailed Students t-test.

mice [3] = test: NMDA-induced tactile hypersensitivity in mice; assay type: in vivo, mouse; conditions: for tactile (mechanical) hypersensitivity score: NMDA (100 ng IT), cumulative score 0 to 16, mean ± SEM; for inhibition of NMDA-induced tactile hypersensitivity: result in words
Method: as §1, with “Mice (20-30 g) were injected intrathecally as described in Hylden and Wilcox, Eur. J. Pharmacol. 67:313-316 (1980).” left out
as §2

human α-2C receptor = molecular target: T1, human α-2C receptor (Homo sapiens, UniProt P18825); test: Inhibition of forskolin-induced cAMP accumulation in PC12 cells expressing human α-2C receptor; assay type: cell-based; conditions: percent efficacy relative to brimonidine
T1 construct: expressed in transfected cells; host or cells: PC12 cells (retroviral vector pCL BABE Puro)
T1 sequence (P18825 1-462): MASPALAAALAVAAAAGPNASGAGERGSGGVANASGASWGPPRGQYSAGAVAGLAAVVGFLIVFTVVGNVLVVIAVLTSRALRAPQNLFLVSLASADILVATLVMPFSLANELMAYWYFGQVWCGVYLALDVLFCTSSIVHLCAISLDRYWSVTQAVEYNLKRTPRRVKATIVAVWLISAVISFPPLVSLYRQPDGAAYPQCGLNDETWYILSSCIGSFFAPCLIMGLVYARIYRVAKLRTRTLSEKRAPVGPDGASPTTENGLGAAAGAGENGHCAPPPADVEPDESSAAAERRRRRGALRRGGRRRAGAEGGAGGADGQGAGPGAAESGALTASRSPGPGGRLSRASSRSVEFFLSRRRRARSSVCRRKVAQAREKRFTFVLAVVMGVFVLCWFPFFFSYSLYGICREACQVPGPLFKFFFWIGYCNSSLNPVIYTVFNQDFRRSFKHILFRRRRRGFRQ
Method: (§3) The human α-2A and α-2C receptor supernatants were added, in varying amounts, to naive PC12 cells, which were then incubated for 48 hours. The transduced cell populations were replated at a lower density and grown in media containing 100 ug/ml puromycin.
(§4) Intracellular cAMP measurement was performed as follows. PC12 cells stably expressing the human α-2A or human α-2C adrenergic receptors were plated in 96-well poly-D-lysine coated plates at a density of 30,000 cells per well in 100 μl DMEM supplemented with 10% horse serum, 5% heat inactivated fetal bovine serum, 1% antibiotic-antimycotic and 100 μg/ml puromycin. Cells were grown overnight at 37° C. and 5% CO2. Cells were dosed by adding an equal volume of media containing IBMX (to a final concentration of 1 mM), forskolin (to a final concentration of 10 μM) and the appropriate drug dilution (to a final concentration of between 10^−5 M and 10^−12 M). After a 10 minute incubation, the media was aspirated and the cells lysed with 200 μl lysis buffer (Amersham Biosciences; Piscataway, N.J.). Plates were stored at −20° C. for up to 24 hours prior to assay. Intracellular cAMP was determined using the Biotrak cAMP enzyme immunoassay system (Amersham Biosciences) according to the manufacturer's instructions. Plates were read on a plate reader at 450 nm.

[4] = molecular target: T2, bovine α-1A adrenergic receptor (Bos taurus, UniProt P18130); test: Intracellular Ca+2 response in HEK293 cells expressing bovine α-1A receptor; assay type: cell-based; conditions: for bovine α1A % E: percent efficacy relative to phenylephrine; for agonist activity at the α-1A receptor: result in words
T2 sequence (P18130 1-466): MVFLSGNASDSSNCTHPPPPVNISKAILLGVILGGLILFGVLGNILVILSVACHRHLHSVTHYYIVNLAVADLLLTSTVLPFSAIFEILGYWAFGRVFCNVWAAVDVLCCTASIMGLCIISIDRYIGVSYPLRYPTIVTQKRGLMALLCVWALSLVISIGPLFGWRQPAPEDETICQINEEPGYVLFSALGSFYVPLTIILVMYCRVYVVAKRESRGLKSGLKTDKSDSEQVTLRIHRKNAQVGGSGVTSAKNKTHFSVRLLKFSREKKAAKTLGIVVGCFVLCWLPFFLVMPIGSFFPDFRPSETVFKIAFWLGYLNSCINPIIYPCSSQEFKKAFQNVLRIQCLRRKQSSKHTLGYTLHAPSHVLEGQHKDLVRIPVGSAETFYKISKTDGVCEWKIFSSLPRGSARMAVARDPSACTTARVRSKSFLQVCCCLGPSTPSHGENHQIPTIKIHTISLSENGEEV
Method: (§5) The bovine α-1A and hamster α-1B receptor supernatants were added, in varying amounts, to naive HEK293 cells, which were then incubated for 48 hours. The transduced cell populations were replated at a lower density and grown in media containing 0.25 ug/ml puromycin. […] Receptor density was measured in a prazosin radioligand binding assay.
(§6) Intracellular Ca^+2 responses were measured as follows in HEK293 cells stably expressing either the bovine α-1A or hamster α-1B adrenergic receptor. Between 40,000 to 50,000 cells were plated per well in 96-well poly-D-lysine coated plates in 0.2 ml DMEM containing 10% heat-inactivated fetal calf serum, 1% antibiotic-antimycotic and 0.25 μg/ml puromycin one day prior to use. Cells were washed twice with HBSS supplemented with 10 mM HEPES, 2.0 mM CaCl2 and 2.5 mM probenicid, and subsequently incubated at 37° C. for 60 minutes with 4 μM Fluo-4 (Molecular Probes; Eugene, Oreg.). The extracellular dye was washed from the plates twice prior to placing the plates in the fluorometric imaging plate reader (FLIPR; Molecular Devices; Sunnyvale, Calif.). Ligands were diluted in HBSS and aliquoted into a 96-well microplate. Drugs were tested over the concentration range of 0.64 nM to 10,000 nM. Data for Ca^+2 responses were obtained in arbitrary fluorescence units.

[5] = molecular target: T3, hamster α-1B adrenergic receptor (Mesocricetus auratus, UniProt P18841); assay type: cell-based; conditions: for hamster α1B % E: percent efficacy relative to phenylephrine; for agonist activity at the α-1B receptor: result in words
T3 sequence (P18841 1-515): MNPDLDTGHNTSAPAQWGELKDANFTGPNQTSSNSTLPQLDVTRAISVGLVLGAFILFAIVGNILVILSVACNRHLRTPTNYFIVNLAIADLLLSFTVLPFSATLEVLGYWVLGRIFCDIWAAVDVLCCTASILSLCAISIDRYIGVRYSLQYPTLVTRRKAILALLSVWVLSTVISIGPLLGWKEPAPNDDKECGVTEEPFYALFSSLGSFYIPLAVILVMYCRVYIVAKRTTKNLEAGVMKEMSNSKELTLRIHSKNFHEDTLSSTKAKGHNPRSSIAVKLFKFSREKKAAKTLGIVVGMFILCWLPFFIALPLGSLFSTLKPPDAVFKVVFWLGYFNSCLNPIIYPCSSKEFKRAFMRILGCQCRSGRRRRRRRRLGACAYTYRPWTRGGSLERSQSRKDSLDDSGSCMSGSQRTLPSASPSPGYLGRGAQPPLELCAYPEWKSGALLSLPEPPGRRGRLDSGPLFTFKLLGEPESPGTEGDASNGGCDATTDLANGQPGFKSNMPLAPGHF
Method: as §5, §6

human α-2A receptor = molecular target: T4, human α-2A receptor (Homo sapiens, UniProt P08913); conditions: percent efficacy relative to brimonidine
T4 sequence (P08913 1-465): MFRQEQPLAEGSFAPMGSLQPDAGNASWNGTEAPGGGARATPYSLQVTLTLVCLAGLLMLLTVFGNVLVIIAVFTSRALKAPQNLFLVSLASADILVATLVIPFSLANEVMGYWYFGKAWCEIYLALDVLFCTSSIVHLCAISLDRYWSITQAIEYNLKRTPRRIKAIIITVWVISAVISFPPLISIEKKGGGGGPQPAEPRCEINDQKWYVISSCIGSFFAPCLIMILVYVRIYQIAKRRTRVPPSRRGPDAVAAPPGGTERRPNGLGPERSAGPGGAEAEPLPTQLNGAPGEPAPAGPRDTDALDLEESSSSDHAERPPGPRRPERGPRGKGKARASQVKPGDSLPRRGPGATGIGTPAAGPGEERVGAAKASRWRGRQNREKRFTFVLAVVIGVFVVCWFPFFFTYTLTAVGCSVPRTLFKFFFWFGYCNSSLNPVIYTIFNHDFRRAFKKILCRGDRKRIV
Method: as §3, §4

Structure (SMILES)	tactile (mechanical) hypersensitivity score (mice [1])	tactile (mechanical) hypersensitivity score (mice [2])	analgesic activity in sulprostone-induced tactile hypersensitivity (mice [2]; wildtype mice)	tactile (mechanical) hypersensitivity score (mice [3])	human α2C % E (human α-2C receptor) [%]	bovine α1A % E [4] [%]	hamster α1B % E [5] [%]	other results
NCC1(CC(=O)O)CCCCC1 [Gabapentin]	13.0	3.2 ± 0.5	inhibited tactile hypersensitivity	3.7 ± 0.8				inhibition of NMDA-induced tactile hypersensitivity (mice [3]; wildtype mice): inhibited tactile hypersensitivity
CNC[C@H](O)c1cccc(O)c1 [Phenylephrine]					87	110	110	strongly tactile hypersensitivity-inducing dose (mice [1]; i.p., wildtype mice): 0.03 µg/kg; dose resulting in maximal hypersensitivity (mice [1]; i.p., α-2A knockout mice): 0.0003 µg/kg; dose resulting in maximal hypersensitivity (mice [1]; i.p., α-2C knockout mice): 0.0001 µg/kg; dose at which significant tactile hypersensitivity starts (mice [1]; intraperitoneal, wildtype mice): 0.003 µg/kg; dose at which significant tactile hypersensitivity starts (mice [1]; intrathecal, wildtype mice): 3 ng
CS(=O)(=O)NC(=O)CCC/C=C\C[C@H]1C(=O)C[C@@H](O)[C@@H]1/C=C/[C@@H](O)COc1ccccc1 [Sulprostone]								maximal dose for tactile hypersensitivity (mice [2]; intrathecal, wild-type and α-2C knockout mice): 200 ng; maximally effective dose for tactile hypersensitivity (mice [2]; intrathecal, α-2A knockout mice): 30 ng
CCN(Cc1cc(Br)ccc1OCc1ccccc1)c1ccc(C(=O)O)cn1 [EP1 antagonist]	9.8 ± 0.7	4.0 ± 1.2	completely blocked	11.4 ± 1.53				
COc1ccccc1N1CCN(CCCNc2c(C)c(=O)n(C)c(=O)n2C)CC1 [5-MU, 5-methyl urapidil]	5.0 ± 1.0	12.0 ± 1.0		13.3 ± 0.8				inhibition of phenylephrine-induced tactile hypersensitivity (mice [1]; wildtype mice, result in words): block the hypersensitive response
Clc1ccc2nsnc2c1NC1=NCCN1 [Tizanidine]					85	63	61	human α2A % E (human α-2A receptor): 93%; agonist activity at the α-1A receptor [4]: partial agonists; agonist activity at the α-1B receptor [5]: partial agonists
CC12CC3CC(C)(C1)CC(N)(C3)C2.Cl [Memantine, 1-amino-3,5-dimethyladamantane hydrochloride]	11.0 ± 0.7	14.3 ± 0.8		4.2 ± 0.9				inhibition of NMDA-induced tactile hypersensitivity (mice [3]; wildtype mice): blocked
Cc1cccc([C@H](C)c2cnc[nH]2)c1C [Dexmedetomidine]					90	59	62	human α2A % E (human α-2A receptor): 93%; agonist activity at the α-1A receptor [4]: partial agonists; agonist activity at the α-1B receptor [5]: partial agonists
CN[C@H](CC(=O)O)C(=O)O [NMDA]								dose of maximal tactile hypersensitivity effect (mice [3]; intrathecal, wildtype mice): 100 ng
COc1cc2nc(N3CCN(C(=O)c4ccco4)CC3)nc(N)c2cc1OC [Prazosin]			no analgesic activity					analgesic activity in sulprostone-induced tactile hypersensitivity (mice [2]; α-2C knockout mice): no analgesic activity
